Tested on: human neutrophils
Experiment: Insall chamber assay with DPPIV enzyme inhibitors, with or without rDPPIV
Assay type: cell-based
Conditions: FIG. 5; for chemorepulsion of neutrophils away from the source of rDPPIV: inhibitor added with rDPPIV, compared to rDPPIV alone; for attraction or repulsion of human neutrophils: inhibitor alone
Procedure: Cover slips were then washed twice with PBS, and neutrophils at approximately 5×10^6 cells/ml were allowed to adhere to the coverslip for 15 minutes at 37° C. Two concentric depressions and the separating bridge in an Insall chamber slide were filled with 2% (w/v) BSA-RPMI. The media was removed from the coverslips, which were then placed face down on the chamber. Media was then removed from the outer chamber and was replaced by rDPPIV alone, DPPIV inhibitor alone (Diprotin A, Enzo Life Sciences or DPPI 1 c hydrochloride, Tocris Bioscience (Bristol, UK)), rDPPIV plus DPPIV inhibitor (all in 2% (w/v) BSA-RPMI), or 2% (w/v) BSA-RPMI. Cells located on the bridge between the square depressions were then filmed using the methods of Ochsner, S. A., et al., Disrupted function of tumor necrosis factor-alpha-stimulated gene 6 blocks cumulus cell-oocyte complex expansion. Endocrinology, 2003. 144(10): p. 4376-84, incorporated in material part by reference herein, using a 10× objective for 1 hour at 37° C. in a humidified 5% CO2 incubator. The displacement of at least 10 randomly-chosen cells per experiment was measured over periods of 10 minutes. Cell tracking and track analysis were performed according to the methods of Phillips, J. E. and R. H. Gomer, A secreted protein is an endogenous chemorepellant in Dictyostelium discoideum. Proc Natl Acad Sci U S A, 2012. 109(27): p. 10990 - 10996, incorporated in material part by reference herein, with the exception that videos of an hour in length were processed into 10 minute segments to yield a TIFF stack of 47 images for analysis (with 13-second intervals between images).
DPPIV enzyme activity has been implicated in chemotaxis of hematopoietic stem cells through cleavage of SDF-1. To determine if DPPIV enzyme activity is responsible for neutrophil chemorepulsion, two enzyme inhibitors of DPPIV, Diprotin A and DPPI 1 c HCl, were used in Insall chamber assays along with DPPIV.

Compound | chemorepulsion of neutrophils away from the source of rDPPIV | attraction or repulsion of human neutrophils
Cl.N#C[C@@H]1CC[C@H](C#N)N1C(=O)CNC1(CO)CCCC1 [DPPI 1 c HCl, DPPI 1 c hydrochloride] | significantly reduced | caused no attraction or repulsion
CC[C@H](C)[C@H](N)C(=O)N1CCC[C@H]1C(=O)N[C@H](C(=O)O)[C@@H](C)CC [Diprotin A] | significantly reduced | caused no attraction or repulsion

From patent US20130039897A1, “COMPOSITIONS AND METHODS FOR REGULATING NEUTROPHIL MOVEMENT AND NEUTROPHIL NUMBERS IN A BODY REGION” (The Texas A&M University System, priority 2011, published 2013)
